Values of other authors in publication PMC11370232, “Repurposing of a library for high-content screening of inhibitors against Echinococcus granulosus” (Parasites & Vectors, 2024).
Structures can show the parent of a compound that is named as a salt.

Tests used:
DNA synthesis = target: DNA synthesis; design: method as in SelleckChem library description; settings: cell-free assay; ref SelleckChem library description; cited from earlier work
[1] = system: Rac1 in MDA-MB-435 and MDA-MB-231 cells; design: method as in SelleckChem library description; settings: ref SelleckChem library description; cited from earlier work
glucokinase (GK) = target: glucokinase (GK); design: method as in SelleckChem library description; settings: ref SelleckChem library description; read-out: EC50, glucokinase activation; cited from earlier work
EGFR(L858R) = settings: ref SelleckChem library description; cited from earlier work
EGFR(E746_A750) = system: EGFR(E746_A750); design: method as in SelleckChem library description; settings: ref SelleckChem library description; cited from earlier work
CDK1, 2, 4, 6 and 9 = system: CDK1, 2, 4, 6 and 9; design: method as in SelleckChem library description; settings: read-out: IC50, CDK1, 2, 4, 6 and 9; cell-free assays; ref SelleckChem library description; cited from earlier work
Akt1 = system: Akt1; design: method as in SelleckChem library description; settings: ref SelleckChem library description; cited from earlier work
Akt2 = system: Akt2; design: method as in SelleckChem library description; settings: ref SelleckChem library description; cited from earlier work
Akt3 = system: Akt3; design: method as in SelleckChem library description; settings: ref SelleckChem library description; cited from earlier work
p70S6K = system: p70S6K; design: method as in SelleckChem library description; settings: ref SelleckChem library description; cited from earlier work
PKA = system: PKA; design: method as in SelleckChem library description; settings: ref SelleckChem library description; cited from earlier work
ROCKI = system: ROCKI; design: method as in SelleckChem library description; settings: ref SelleckChem library description; cited from earlier work
ROCKII = system: ROCKII; design: method as in SelleckChem library description; settings: ref SelleckChem library description; cited from earlier work
Pim1 = system: Pim1; design: method as in SelleckChem library description; settings: ref SelleckChem library description; cited from earlier work
Pim2 = system: Pim2; design: method as in SelleckChem library description; settings: ref SelleckChem library description; cited from earlier work
Pim3 = system: Pim3; design: method as in SelleckChem library description; settings: ref SelleckChem library description; cited from earlier work
HER2 = system: HER2; design: method as in SelleckChem library description; settings: ref SelleckChem library description; cited from earlier work
Bcl-2 = target: Bcl-2; design: method as in SelleckChem library description; settings: cell-free assay; ref SelleckChem library description; cited from earlier work
EGFR = system: EGFR; design: method as in SelleckChem library description; settings: ref SelleckChem library description; cited from earlier work
PDGFR = system: PDGFR; design: method as in SelleckChem library description; settings: ref SelleckChem library description; cited from earlier work

SMILES: COc1cccc2c1C(=O)c1c(O)c3c(c(O)c1C2=O)C[C@@](O)(C(C)=O)C[C@@H]3O[C@H]1C[C@H](N)[C@H](O)[C@H](C)O1 [Daunorubicin HCl]
- Ki (DNA synthesis): 20 nM

SMILES: CCn1c2ccccc2c2cc(Nc3ccnc(NCCCN4CCOCC4)n3)ccc21 [EHop-016]
- IC50 [1]: 1100 nM

SMILES: O=C(Nc1ncc(SCCN2CCCC2)s1)[C@]1(c2ccc(S(=O)(=O)C3CC3)cc2)C[C@H]1C1CCCCC1 [LY2608204]
- EC50 (glucokinase (GK)): 42 nM

SMILES: C=CC(=O)Nc1cccc(Oc2nc(Nc3ccc(N4CCN(C)CC4)cc3)ncc2Cl)c1 [WZ3146]
- IC50 (EGFR(L858R)): 2 nM
- IC50 (EGFR(E746_A750)): 2 nM

SMILES: NC[C@@](O)(c1ccc(Cl)cc1)c1ccc(-c2cn[nH]c2)cc1 [AT13148]
- IC50 (Akt1): 38 nM
- IC50 (Akt2): 402 nM
- IC50 (Akt3): 50 nM
- IC50 (p70S6K): 8 nM
- IC50 (PKA): 3 nM
- IC50 (ROCKI): 6 nM
- IC50 (ROCKII): 4 nM

SMILES: CN1CCCN(C(=O)c2cccc(-c3ccc(/C=C4/C(=O)Nc5ccc(Cl)cc54)o3)c2)CC1 [CX-6258 HCl]
- IC50 (Pim2): 25 nM
- IC50 (Pim3): 16 nM

SMILES: CN(C)C/C=C/C(=O)Nc1cc2c(Nc3ccc(F)c(Cl)c3)ncnc2cc1O[C@H]1CCOC1 [Afatinib (BIBW2992) Dimaleate]
- IC50 (HER2): 14 nM

SMILES: COC1=CC(c2cc3ccccc3[nH]2)=N/C1=C\c1[nH]c(C)cc1C [Obatoclax Mesylate (GX15-070), Obatoclax Mesylate]
- Ki (Bcl-2): 220 nM

SMILES: CC(C)(C)c1cc(C=C(C#N)C#N)cc(C(C)(C)C)c1O [Tyrphostin 9]
- IC50 (EGFR): 460000 nM
- IC50 (PDGFR): 500 nM
